From patent publication US20260226048A1, “MULTI-CYCLIC IRAK AND FLT3 INHIBITING COMPOUNDS AND USES THEREOF” (CHILDREN'S HOSPITAL MEDICAL CENTER, priority 2023, published 2026)
Read-outs that look alike come from different tables or passages of the source.

Columns and labels:
IRAK1 = biological target: T1, IRAK1 (Homo sapiens, UniProt P51617); test: RBC HotSpot Kinase Assay, IRAK1; type: biochemical; conditions: isolated kinase enzyme, 33P-ATP, P81 filter-binding
T1 construct: purchased Reaction Biology (RBC HotSpot)
In short: (§1)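 Radiometric HotSpot assay of catalytic activity with isolated recombinant kinase, possibly truncated or kinase domain only. Buffer: 20 mM Hepes pH 7.5, 10 mM MgCl2, 1 mM EGTA, 0.01% Brij35, 0.02 mg/ml BSA, 0.1 mM Na3VO4, 2 mM DTT, 1% DMSO, with cofactors specific to each kinase.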

MOLM14 D835Y cells = test: MOLM14 D835Y cell viability assay (Cell Titer Glo); type: cell-based; conditions: Homo sapiens, MOLM-14, 48 h, read-out: MOLM14 D835Y IC50
In short: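 MOLM14 cells with FLT3 D835Y or F691L kinase-domain resistance mutations seeded at 1000 cells/well and exposed to compound for 48 h under standard incubator conditions. Viability read by CellTiter-Glo luminescence after 15 min at room temperature.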

MOLM14 F691L cells = test: MOLM14 F691L cell viability assay (Cell Titer Glo); type: cell-based; conditions: Homo sapiens, read-out: MOLM14 F691L IC50
Description: Both cell lines have activated FLT3 receptors, each of which carry additional resistance mutations in the kinase domain (D835Y and F691L, respectively).
For viability/cytotoxicity assessments, cells were seeded into 1536-well white polystyrene tissue culture-treated Greiner plates using a Multidrop Combi dispenser (ThermoFisher), in final volume 5 μL of growth media per well, at a density of 1000 cells per well. […] Plates were incubated for 48 hours at standard incubator conditions covered by a stainless steel gasketed lid to prevent evaporation. 48 hours post compound addition, 3 μL of Cell Titer Glo (Promega) were added to each well and plates were incubated at room temperature for 15 minutes with the stainless-steel lid in place. Luminescence readings were taken using a Viewlux imager (PerkinElmer) with a 2 second exposure time per plate.

IRAK4 = biological target: T2, IRAK4 (Homo sapiens, UniProt Q9NWZ3); test: RBC HotSpot Kinase Assay, IRAK4; type: biochemical; parameters: purchased Reaction Biology (RBC HotSpot); conditions: isolated kinase enzyme, 33P-ATP, P81 filter-binding
T2 sequence (Q9NWZ3 1-460): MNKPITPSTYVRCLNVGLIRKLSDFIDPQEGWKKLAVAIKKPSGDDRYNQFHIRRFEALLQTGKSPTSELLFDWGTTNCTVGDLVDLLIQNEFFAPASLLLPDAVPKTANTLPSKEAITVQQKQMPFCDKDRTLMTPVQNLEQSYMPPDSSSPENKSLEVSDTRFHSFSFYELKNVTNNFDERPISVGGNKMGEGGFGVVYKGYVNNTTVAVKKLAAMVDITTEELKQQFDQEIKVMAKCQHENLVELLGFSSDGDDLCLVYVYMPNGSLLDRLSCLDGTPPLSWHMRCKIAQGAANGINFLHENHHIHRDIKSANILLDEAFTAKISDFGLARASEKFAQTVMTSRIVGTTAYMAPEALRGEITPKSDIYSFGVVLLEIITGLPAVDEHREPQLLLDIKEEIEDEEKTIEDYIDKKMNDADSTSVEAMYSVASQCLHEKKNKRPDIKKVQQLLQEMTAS
In short: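 Radiometric filter-binding activity assay with isolated recombinant kinase (construct may be truncated or catalytic domain only) in 20 mM Hepes pH 7.5, 10 mM MgCl2, 1 mM EGTA, 2 mM DTT, 1% DMSO. Compound preincubated 20 min with kinase/substrate; reaction started with 33P-ATP, run 2 h at room temperature.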

FLT3 = biological target: T3, FLT3 (Homo sapiens, UniProt P36888); test: RBC HotSpot Kinase Assay, FLT3; type: biochemical; parameters: purchased Reaction Biology (RBC HotSpot); conditions: isolated kinase enzyme, 33P-ATP, P81 filter-binding
T3 sequence (P36888 27-993): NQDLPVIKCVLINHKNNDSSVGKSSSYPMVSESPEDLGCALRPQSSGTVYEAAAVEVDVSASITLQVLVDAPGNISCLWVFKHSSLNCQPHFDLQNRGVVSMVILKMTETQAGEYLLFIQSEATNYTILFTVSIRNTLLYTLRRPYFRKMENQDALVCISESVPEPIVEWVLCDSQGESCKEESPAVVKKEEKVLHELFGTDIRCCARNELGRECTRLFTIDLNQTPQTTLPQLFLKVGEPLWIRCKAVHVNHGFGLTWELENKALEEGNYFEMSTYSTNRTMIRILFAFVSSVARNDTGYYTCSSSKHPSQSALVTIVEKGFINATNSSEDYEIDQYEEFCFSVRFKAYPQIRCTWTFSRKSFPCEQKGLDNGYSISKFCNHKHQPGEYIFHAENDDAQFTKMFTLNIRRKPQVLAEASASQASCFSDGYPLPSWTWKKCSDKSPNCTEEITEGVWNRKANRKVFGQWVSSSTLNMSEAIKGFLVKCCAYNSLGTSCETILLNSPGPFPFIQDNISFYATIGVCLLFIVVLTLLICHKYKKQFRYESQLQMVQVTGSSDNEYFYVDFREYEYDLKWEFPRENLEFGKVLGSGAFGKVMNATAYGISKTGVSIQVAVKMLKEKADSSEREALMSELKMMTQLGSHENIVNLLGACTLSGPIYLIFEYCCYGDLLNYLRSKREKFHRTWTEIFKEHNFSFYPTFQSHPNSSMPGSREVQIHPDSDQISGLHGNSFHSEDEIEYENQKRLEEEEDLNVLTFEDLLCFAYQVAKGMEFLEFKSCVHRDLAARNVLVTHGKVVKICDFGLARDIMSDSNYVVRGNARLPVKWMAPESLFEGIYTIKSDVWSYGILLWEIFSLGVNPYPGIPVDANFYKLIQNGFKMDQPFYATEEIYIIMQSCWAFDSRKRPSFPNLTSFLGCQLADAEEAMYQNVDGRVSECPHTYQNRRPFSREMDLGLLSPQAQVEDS
In short: as §1

[1] = cell viability, Cell Titer Glo, 48 hours
[2] = MOLM-14, cell viability, Cell Titer Glo, 48 hours

T1 sequence (P51617 whole entry): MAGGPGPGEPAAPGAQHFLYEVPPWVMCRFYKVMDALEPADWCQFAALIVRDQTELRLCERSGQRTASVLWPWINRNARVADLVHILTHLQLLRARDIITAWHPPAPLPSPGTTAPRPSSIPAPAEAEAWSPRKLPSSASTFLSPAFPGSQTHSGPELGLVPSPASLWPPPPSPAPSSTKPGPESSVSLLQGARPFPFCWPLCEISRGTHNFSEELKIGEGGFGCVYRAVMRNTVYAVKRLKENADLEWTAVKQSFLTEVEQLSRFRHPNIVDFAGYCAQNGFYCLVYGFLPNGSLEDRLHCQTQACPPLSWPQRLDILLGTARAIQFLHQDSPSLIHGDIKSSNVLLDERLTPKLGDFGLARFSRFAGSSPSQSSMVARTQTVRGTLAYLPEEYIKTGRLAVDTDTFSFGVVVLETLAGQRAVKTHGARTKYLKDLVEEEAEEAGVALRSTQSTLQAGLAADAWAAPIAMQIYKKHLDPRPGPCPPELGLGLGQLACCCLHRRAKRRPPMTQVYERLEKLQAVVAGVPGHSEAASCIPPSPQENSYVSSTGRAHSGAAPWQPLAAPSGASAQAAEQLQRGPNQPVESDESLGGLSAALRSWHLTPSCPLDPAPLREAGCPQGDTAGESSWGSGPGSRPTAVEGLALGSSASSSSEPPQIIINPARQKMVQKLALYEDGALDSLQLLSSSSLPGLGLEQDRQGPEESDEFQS

Compound | IC50 (IRAK1) [µM] | IC50 (MOLM14 D835Y cells; [1]) [µM] | IC50 (MOLM14 F691L cells; [2]) [µM] | IC50 (IRAK4) [µM] | IC50 (FLT3) [µM] | IC50 (MOLM14 D835Y cells) [µM] | IC50 (MOLM14 F691L cells; MOLM-14, 48 h) [µM]
COc1cc2ncc(-c3nc(N[C@@H]4CCCNC4)ncc3F)n2nc1C1CCCC1 [Compound 62a, (R)-4-(6-cyclopentyl-7-methoxyimidazo[1,2-b]pyridazin-3-yl)-5-fluoro-N-(piperidin-3-yl)pyrimidin-2-amine] | 0.0006 | 0.001 | 0.009 | < 0.0005 | < 0.0005 | – | –
COc1cc2ncc(-c3nc(N[C@H]4CNCC[C@@H]4F)ncc3F)n2nc1C1CCCC1 [Compound 63a, 4-(6-cyclopentyl-7-methoxyimidazo[1,2-b]pyridazin-3-yl)-5-fluoro-N-((3S,4S)-4-fluoropiperidin-3-yl)pyrimidin-2-amine] | < 0.0005 | 0.002 | 0.013 | < 0.0005 | < 0.0005 | – | –
COc1cc2ncc(-c3nc(N[C@H]4CNC[C@@H]4F)ncc3F)n2nc1C1CCCCC1 [Compound 64a, 4-(6-cyclohexyl-7-methoxyimidazo[1,2-b]pyridazin-3-yl)-5-fluoro-N-((3S,4S)-4-fluoropyrrolidin-3-yl)pyrimidin-2-amine] | < 0.0005 | 0.006 | 0.057 | < 0.0005 | < 0.0005 | – | –
COc1cc2ncc(-c3nc(N[C@@H]4CCCNC4)ncc3F)n2nc1C1CCCCC1 [Compound 65a, (R)-4-(6-cyclohexyl-7-methoxyimidazo[1,2-b]pyridazin-3-yl)-5-fluoro-N-(piperidin-3-yl)pyrimidin-2-amine] | < 0.0005 | 0.003 | 0.018 | < 0.0005 | < 0.0005 | – | –
COc1cc2ncc(-c3nc(N[C@H]4CNCC[C@@H]4F)ncc3F)n2nc1C1CCCCC1 [Compound 66a, 4-(6-cyclohexyl-7-methoxyimidazo[1,2-b]pyridazin-3-yl)-5-fluoro-N-((3S,4S)-4-fluoropiperidin-3-yl)pyrimidin-2-amine] | < 0.0005 | – | – | 0.0006 | < 0.0005 | 0.004 | 0.028
COc1cc2ncc(-c3nc(N[C@H]4CNC[C@@H]4F)ncc3F)n2nc1C12CC(C1)C2 [Compound 67a, 4-(6-(bicyclo[1.1.1]pentan-1-yl)-7-methoxyimidazo[1,2-b]pyridazin-3-yl)-5-fluoro-N-((3S,4S)-4-fluoropyrrolidin-3-yl)pyrimidin-2-amine] | 0.001 | 0.009 | 0.057 | 0.0009 | < 0.0005 | – | –
COc1cc2ncc(-c3nc(N[C@H]4CNCC[C@@H]4F)ncc3F)n2nc1C12CC(C1)C2 [Compound 69a, 4-(6-(bicyclo[1.1.1]pentan-1-yl)-7-methoxyimidazo[1,2-b]pyridazin-3-yl)-5-fluoro-N-((3S,4S)-4-fluoropiperidin-3-yl)pyrimidin-2-amine] | 0.0009 | 0.003 | 0.025 | 0.0007 | < 0.0005 | – | –
COc1cc2ncc(-c3ccnc(N[C@H]4CNC[C@@H]4F)n3)n2nc1C1CC2(CCC2)C1 [Compound 75a, N-((3S,4S)-4-fluoropyrrolidin-3-yl)-4-(7-methoxy-6-(spiro[3.3]heptan-2-yl)imidazo[1,2-b]pyridazin-3-yl)pyrimidin-2-amine] | 0.102 | 0.063 | 0.634 | 0.006 | < 0.0005 | – | –
COc1cc2ncc(-c3ccnc(N[C@@H]4CCCNC4)n3)n2nc1C1CC2(CCC2)C1 [Compound 76a, (R)-4-(7-methoxy-6-(spiro[3.3]heptan-2-yl)imidazo[1,2-b]pyridazin-3-yl)-N-(piperidin-3-yl)pyrimidin-2-amine] | 0.037 | 0.101 | 1.13 | 0.021 | < 0.0005 | – | –
COc1cc2ncc(-c3ccnc(N[C@H]4CNC[C@@H]4F)n3)n2nc1C1CCC1 [Compound 77a, 4-(6-cyclobutyl-7-methoxyimidazo[1,2-b]pyridazin-3-yl)-N-((3S,4S)-4-fluoropyrrolidin-3-yl)pyrimidin-2-amine] | 0.012 | 0.016 | 0.142 | 0.001 | < 0.0005 | – | –
COc1cc2ncc(-c3ccnc(N[C@H]4CNC[C@@H]4F)n3)n2nc1C1CC(C)(C)C1 [Compound 80a, 4-(6-(3,3-dimethylcyclobutyl)-7-methoxyimidazo[1,2-b]pyridazin-3-yl)-N-((3S,4S)-4-fluoropyrrolidin-3-yl)pyrimidin-2-amine] | 0.142 | 0.09 | 0.798 | 0.017 | < 0.0005 | – | –
COc1cc2ncc(-c3ccnc(N[C@@H]4CCCNC4)n3)n2nc1C1CC(C)(C)C1 [Compound 81a] | 0.049 | 0.09 | 1.27 | 0.055 | < 0.0005 | – | –
COc1cc2ncc(-c3ccnc(N[C@H]4CNC[C@@H]4F)n3)n2nc1C1CCCC1 [Compound 83a, 4-(6-cyclopentyl-7-methoxyimidazo[1,2-b]pyridazin-3-yl)-N-((3S,4S)-4-fluoropyrrolidin-3-yl)pyrimidin-2-amine] | 0.008 | 0.016 | 0.113 | 0.0006 | < 0.0005 | – | –
COc1cc2ncc(-c3ccnc(N[C@@H]4CCCNC4)n3)n2nc1C1CCCC1 [Compound 84a, (R)-4-(6-cyclopentyl-7-methoxyimidazo[1,2-b]pyridazin-3-yl)-N-(piperidin-3-yl)pyrimidin-2-amine] | 0.018 | 0.014 | 0.113 | 0.002 | < 0.0005 | – | –
COc1cc2ncc(-c3ccnc(N[C@H]4CNCC[C@@H]4F)n3)n2nc1C1CCCC1 [Compound 85a, 4-(6-cyclopentyl-7-methoxyimidazo[1,2-b]pyridazin-3-yl)-N-((3S,4S)-4-fluoropiperidin-3-yl)pyrimidin-2-amine] | 0.007 | 0.011 | 0.09 | 0.001 | < 0.0005 | – | –
COc1cc2ncc(-c3ccnc(N[C@H]4CNC[C@@H]4F)n3)n2nc1C1CCCCC1 [Compound 86a, 4-(6-cyclohexyl-7-methoxyimidazo[1,2-b]pyridazin-3-yl)-N-((3S,4S)-4-fluoropyrrolidin-3-yl)pyrimidin-2-amine] | 0.016 | 0.018 | 0.142 | 0.001 | < 0.0005 | – | –
